According to patent publication US9776991B2, “Thienomethylpiperazine derivatives as inhibitors of soluble epoxide hydrolase” (SANOFI, priority 2013, dated 2017):

Molecular target: recombinant sEH (soluble epoxide hydrolase, EPHX2) (Homo sapiens (Human), UniProt P34913)
Assay: biochemical fluorometric sEH inhibition assay with Phome substrate
Details: recombinant sEH purified from Sf9 insect cells, 2 nM sEH, 5 μM Phome, 60 minutes at 30° C.
Procedure, shortened: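 Human sEH expressed in Sf9 cells (2 nM final) pre-incubated 15 min at 30 °C with compound (0.0001-10 μM), then 5 μM Phome added for 60 min at 30 °C in 25 mM Hepes with 0.01% albumin. Fluorescent 6-methoxy-2-naphthaldehyde read before substrate addition and at the end; IC50 from % inhibition.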

Sequence of recombinant sEH (soluble epoxide hydrolase, EPHX2) (P34913 whole entry): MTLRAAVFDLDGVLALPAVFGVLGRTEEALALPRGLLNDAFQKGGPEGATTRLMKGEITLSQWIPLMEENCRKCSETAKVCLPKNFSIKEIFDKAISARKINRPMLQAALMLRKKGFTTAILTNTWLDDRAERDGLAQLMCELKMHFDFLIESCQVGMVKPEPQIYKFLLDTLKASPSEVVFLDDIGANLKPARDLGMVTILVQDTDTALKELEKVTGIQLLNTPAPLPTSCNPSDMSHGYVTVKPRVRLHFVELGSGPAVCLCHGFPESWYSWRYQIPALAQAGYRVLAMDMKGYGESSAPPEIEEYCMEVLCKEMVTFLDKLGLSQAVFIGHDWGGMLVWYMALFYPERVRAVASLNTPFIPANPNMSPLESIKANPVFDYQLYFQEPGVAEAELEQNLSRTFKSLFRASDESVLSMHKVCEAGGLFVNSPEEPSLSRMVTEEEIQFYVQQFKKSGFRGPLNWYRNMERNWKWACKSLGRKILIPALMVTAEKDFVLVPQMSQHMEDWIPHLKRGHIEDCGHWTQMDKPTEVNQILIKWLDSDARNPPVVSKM

Structure (SMILES) | IC50 [nM]
O=C(NCc1ccccc1OC(F)(F)F)c1ccc(CN2CCN(CCO)CC2)s1 [Example 125] | 1.68
O=C(NCc1ccccc1OC(F)(F)F)c1ccc(CN2CCN(C(=O)N3CCCC3)CC2)s1 [Example 19] | 0.695
Cc1n[nH]c(C)c1C(=O)N1CCN(Cc2ncc(C(=O)NCc3ccc(Cl)cc3Cl)s2)CC1 [Example 206] | 5.24
CCC(C)(O)C(=O)N1CCN(Cc2ncc(C(=O)NCc3ccc(Cl)cc3Cl)s2)CC1 (stereo not shown) [Example 167] | 12.2
O=C(NCc1ccc(Cl)cc1Cl)c1cnc(CN2CCN(C(=O)CN3CCOC3=O)CC2)s1 [Example 193] | 15.2
CC(O)C(=O)N1CCN(Cc2ccc(C(=O)NCc3ccc(Cl)cc3Cl)s2)CC1 (stereo not shown) [Example 20] | 0.539
CC(O)C(=O)N1CCN(Cc2ccc(C(=O)NCc3ccccc3OC(F)(F)F)s2)CC1 (stereo not shown) [Example 155] | 1.99
O=C(NCc1ccc(Cl)cc1Cl)c1ccc(CN2CCN(C(=O)c3ccccc3F)CC2)s1 [Example 131] | 2.13
O=C(NCc1ccccc1OC(F)(F)F)c1ccc(CN2CCN(C(=O)c3ccccn3)CC2)s1 [Example 121] | 1.68
Cc1cncc(N2CCN(Cc3ccc(C(=O)NCc4ccccc4OC(F)(F)F)s3)CC2)n1 [Example 39] | 2.75
CN[C@H](C(=O)N1CCN(Cc2ccc(C(=O)NCc3ccccc3OC(F)(F)F)s2)CC1)[C@@H](C)O [Example 41] | 2.75
Cc1cc(=O)oc(C)c1C(=O)N1CCN(Cc2ccc(C(=O)NCCC(C)(C)C)s2)CC1 [Example 10] | 2.94
COc1ncccc1C(=O)N1CCN(Cc2ccc(C(=O)NCc3ccccc3C(F)(F)F)s2)CC1 [Example 57] | 1.13
COCCOCC(=O)N1CCN(Cc2ccc(C(=O)NCc3ccccc3OC(F)(F)F)s2)CC1 [Example 83] | 2.37
C[C@@H](O)C(=O)N1CCN(Cc2ccc(C(=O)N(Cc3ccccc3)OC(F)(F)F)s2)CC1 [Example 1] | 0.122
O=C(NCc1ccccc1OC(F)(F)F)c1ccc(CN2CCN(C(=O)C3COCCN3)CC2)s1 (stereo not shown) [Example 49] | 2.68
O=C(NCc1ccc(Cl)cc1Cl)c1ccc(CN2CCN(C(=O)C3(c4ccccc4)CC3)CC2)s1 [Example 58] | 1.17

Structure (SMILES) | IC50 [nM]
O=C(NCc1ccc(Cl)cc1Cl)c1cnc(CN2CCN(C(=O)CN3CCC(O)C3)CC2)s1 (stereo not shown) [Example 211] | 90.9
COc1ccc(CNC(=O)c2ccc(CN3CCN(c4nccn4C)CC3)s2)c(OC(F)(F)F)c1 [Example 113] | 1.67
O=C(NCc1ccccc1C(F)(F)F)c1ccc(CN2CCN(C(=O)C3(c4ccccc4)CC3)CC2)s1 [Example 75] | 2.55
Cn1ncc(N2CCN(Cc3ccc(C(=O)NCc4ccc(Cl)cc4Cl)s3)CC2)cc1=O [Example 108] | 2.15
NC1(C(=O)N2CCN(Cc3ccc(C(=O)NCc4ccccc4OC(F)(F)F)s3)CC2)CCOCC1 [Example 145] | 1.88
Cc1cc(C(=O)NCCC(C)(C)C)sc1CN1CCN(C(=O)c2c(C)cc(=O)oc2C)CC1 [Example 28] | 0.803
CC[C@@H](O)C(=O)N1CCN(Cc2ccc(C(=O)NCc3ccccc3OC(F)(F)F)s2)CC1 [Example 96] | 1.57
O=C(NCc1ccccc1OC(F)(F)F)c1ccc(CN2CCN(C(=O)C3CCOC3)CC2)s1 (stereo not shown) [Example 55] | 1.05
O=C(NCc1ccccc1OC(F)(F)F)c1ccc(CN2CCN(C(=O)c3ccc[nH]c3=O)CC2)s1 [Example 66] | 1.25
Cc1cc(=O)oc(C)c1C(=O)N1CCN(Cc2ccc(C(=O)NCc3ccccc3OC(F)(F)F)s2)CC1 [Example 35] | 0.916
O=C(NCc1ccccc1C(F)(F)F)c1ccc(CN2CCN(C(=O)[C@@H]3C[C@H]3c3ccccc3)CC2)s1 [Example 76] | 2.53
O=C(NCc1ccccc1C(F)(F)F)c1ccc(CN2CCN(C(=O)Cc3cccc(C(F)(F)F)c3)CC2)s1 [Example 31] | 0.758
Cc1cnc(C)c(N2CCN(Cc3ccc(C(=O)NCc4ccccc4OC(F)(F)F)s3)CC2)n1 [Example 26] | 2.75
O=C(NCc1ccc(Cl)cc1Cl)c1ccc(CN2CCN(C3CCCC3)C(=O)C2)s1 [Example 84] | 2.35
CC(C)(O)CC(=O)N1CCN(Cc2ncc(C(=O)NCc3ccc(Cl)cc3Cl)s2)CC1 [Example 185] | 13.8
CSCCC(=O)N1CCN(Cc2ccc(C(=O)NCc3ccccc3OC(F)(F)F)s2)CC1 [Example 137] | 1.76
O=C(NCc1ccc(Cl)cc1Cl)c1cnc(CN2CCN(C(=O)C3CCC(O)C3)CC2)s1 (stereo not shown) [Example 209] | 3.49
